Measurements published in US5324832A, “Muscarinic antagonists” (priority 1991, dated 1994).
“Also recorded” adds a separate entry of the source. One block for each compound: values may come before it.

What was measured:
[1] = test system: m1 through m4 muscarinic receptors; test: Displacement of [3H]NMS from muscarinic receptors (m1-m4), subtype not singled out; format: binding; settings: for affinity / potency at muscarinic receptors / receptor subtype selectivity / displacement of [3H]NMS from the receptor: in words; for affinity / potency at muscarinic receptors: qualitative; for receptor subtype selectivity: m1 versus m2 / among subtypes; for Ki: in the vicinity of, subtype not stated, read-out: Ki, inhibition of [3H]NMS binding
Text: (§1) The analogues were screened in binding assays using membranes from cells or tissues containing primarily single subtypes of m1 through m4 muscarinic receptors. Transfected A9L cells were used as a source of homogeneous populations of m1, m3, and m4 receptors. See Jones, S. V.; Barker, J. L.; Buckley, N. J.; Bonner, T. I; Brann, M. R., Mol. Pharmacol., 1988, 34, 421, which is specifically incorporated by reference herein. Rat heart tissue was the source of m2 muscarinic receptors.
(§2) A crude membrane fraction was obtained as follows. Confluent cultures were rinsed three times with phosphate-buffered saline, and lysed in a solution of 2 mM Tris-HCl (pH 7.1) and 1 mM EDTA for 30 min at 2° C. The cells were harvested by scraping and homogenized on a Polytron (10 sec, 75% mix).
(§3) Nuclei were removed in a low speed centrifugation (400 × g, 5 min) and a crude membrane preparation was obtained by centrifugation of the supernatant at 50,000 × g for 20 min. The resulting pellet was resuspended in the lysis buffer and recentrifuged at 50,000 × g for 20 min. Membranes were stored frozen at -70° C. until needed.
(§4) The total volume was 1 mL.
(§5) The incubation was terminated by rapid filtration over GF/B filters using a Brandel cell harvester. The filters were washed three times with ice-cold 0.9% NaCl, equilibrated in scintillation counting fluid and counted on a Beckmann LS 5801 liquid scintillation counter at 47% efficiency.
(§6) It was routinely subtracted from the total counts.

m2 muscarinic receptors = molecular target: T1, m2 muscarinic receptors (Rattus norvegicus, UniProt P10980); test: Inhibition of [3H]NMS binding, membranes from rat heart (m2 receptors); settings: for factor by which 29a and 32d differ in affinity at m2 receptors: 29a versus 32d
T1 construct: Rat heart tissue was the source of m2 muscarinic receptors; from tissue; host or cells: rat heart
T1 sequence (P10980 1-466): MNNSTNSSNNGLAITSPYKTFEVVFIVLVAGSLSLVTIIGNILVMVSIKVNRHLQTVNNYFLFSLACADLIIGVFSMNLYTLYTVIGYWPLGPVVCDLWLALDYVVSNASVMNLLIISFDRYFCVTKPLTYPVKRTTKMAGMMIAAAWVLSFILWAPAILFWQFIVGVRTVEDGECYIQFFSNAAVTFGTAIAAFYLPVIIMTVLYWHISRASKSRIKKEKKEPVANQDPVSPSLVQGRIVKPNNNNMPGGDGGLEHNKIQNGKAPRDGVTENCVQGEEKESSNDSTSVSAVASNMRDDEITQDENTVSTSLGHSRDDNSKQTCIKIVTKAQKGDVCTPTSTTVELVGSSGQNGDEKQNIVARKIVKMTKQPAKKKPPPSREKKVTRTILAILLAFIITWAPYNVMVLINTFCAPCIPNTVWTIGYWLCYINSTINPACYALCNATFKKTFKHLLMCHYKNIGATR
Text: as §1, §2, §3, §4, §5, §6

m1 muscarinic receptors [2] = molecular target: T2, m1 muscarinic receptors (Rattus norvegicus, UniProt P08482); test: Inhibition of [3H]NMS binding, membranes of transfected A9L cells expressing m1 receptors; set-up: expressed in transfected cells; host or cells: A9L cells (obtained from Dr. M. Brann, NIH); settings: for factor by which 29a and 32d differ in affinity at m1 receptors: 29a versus 32d; for selectivity ratio m1 versus m2 receptors: in favor of m1 versus m2 receptors
T2 sequence (P08482 1-460): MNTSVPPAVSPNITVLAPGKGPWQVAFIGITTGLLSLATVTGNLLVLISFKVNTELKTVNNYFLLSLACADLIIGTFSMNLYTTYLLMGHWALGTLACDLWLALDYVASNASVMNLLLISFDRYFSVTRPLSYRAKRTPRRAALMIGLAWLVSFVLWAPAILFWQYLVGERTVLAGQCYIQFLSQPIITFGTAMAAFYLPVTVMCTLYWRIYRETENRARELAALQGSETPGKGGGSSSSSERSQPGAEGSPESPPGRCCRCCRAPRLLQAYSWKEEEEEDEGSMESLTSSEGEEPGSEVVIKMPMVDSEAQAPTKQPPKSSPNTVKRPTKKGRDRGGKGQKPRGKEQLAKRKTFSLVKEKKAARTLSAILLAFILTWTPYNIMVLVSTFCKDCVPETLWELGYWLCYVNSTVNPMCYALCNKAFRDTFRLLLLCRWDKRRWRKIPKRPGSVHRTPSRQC
Protocol: The analogues were screened in binding assays using membranes from cells or tissues containing primarily single subtypes of m1 through m4 muscarinic receptors. Transfected A9L cells were used as a source of homogeneous populations of m1, m3, and m4 receptors. […] Rat heart tissue was the source of m2 muscarinic receptors.
A crude membrane fraction was obtained as follows. Confluent cultures were rinsed three times with phosphate-buffered saline, and lysed in a solution of 2 mM Tris-HCl (pH 7.1) and 1 mM EDTA for 30 min at 2° C.
as §3, §4
The incubation was terminated by rapid filtration over GF/B filters using a Brandel cell harvester.
as §6

muscarinic receptors = settings: in words; cited from earlier work
m1 muscarinic receptors [3] = molecular target: T2, m1 muscarinic receptors; format: binding; settings: 1.0 mM compound 26, in words
Protocol: To assay for irreversible inhibition in rat brain membranes, Scatchard analyses before and after treatment of the membranes with 26 were compared. Even a very […].
Aliquots of brain membranes were incubated with 1.0 mM of freshly dissolved 26 in phosphate-buffered saline (pH 8.0) for 60 min at room temperature, then centrifuged at 15,000 rpm for 10 min.
The resulting pellet was resuspended in 25 mL of fresh phosphate-buffered saline (pH 7.2) and centrifuged as above.

[4] = Storage stability of the salt; format: physicochemical; settings: -20 ° C.; dihydrochloride salt
Protocol: Compound 25 (110 mg, 0.22 mmol) was refluxed for 1 h with thionyl chloride (1 mL) in chloroform (4 mL). The volatile material was removed in vacuo, and the residue was basified with aqueous Na2 CO3 (pH 10) and washed immediately with ether to completely remove the non polar impurity (TLC CHCl3 /CH3 OH/NH4 OH: 9/1/0.1, Rf 0.4). The product was extracted into CHCl3 from the cold aqueous phase and the combined CHCl3 layers were concentrated in vacuo and acidified using ether/HCl. The precipitate was dried in vacuo to yield 29 mg of 26 (25%) as a white solid: mp 188°-190° C.; 1H NMR (D20, HCl salt) δ 3.00-4.00 (m, 14 H), 7.50-7.70 (m, 3 H), 7.70-7.90 (m, 3 H), 8.40 (s, 1 H); MS (CI/NH3) m/e 400 (MH+), 212 (base), 364, 338. […] The salt was stable upon storage at -20 ° C. for at least 6 months.

[5] = in words, versus propargyl derivative 22

SMILES: NCCCCCCCCCN1CCN(CC(=O)N2c3ccccc3C(=O)Nc3cccnc32)CC1 [Compound 34g]
- affinity / potency at muscarinic receptors [1]: higher affinities than the corresponding derivatives with the small neutral acetylamino terminal group (35g and 35h)

SMILES: CC(=O)NCCN1CCN(CC(=O)N2c3ccccc3C(=O)Nc3cccnc32)CC1 [Compound 28]
- Ki [1]: ~1 µM

SMILES: CN1CCN(CC(=O)N2c3cc(CO)ccc3C(=O)Nc3cccnc32)CC1 [Compound 16, 5,11-Dihydro-9-hydroxymethyl-11-[(4-methyl-1-piperazinyl)acetyl]-6H-pyrido[2,3-b] [1,4]benzodiazepine-6-one]
- displacement of [3H]NMS from the receptor [1]: detectable displacement of [^3 H]NMS

SMILES: O=C1Nc2cccnc2N(C(=O)CN2CCN(CCO)CC2)c2ccccc21 [Compound 25, 5,11-Dihydro-11-[(4-[2-hydroxyethyl]-1-piperazinyl)acetyl]-6H-pyrido[2,3-b][1,4]benzodiazepine-6-one]
- Ki [1]: ~1 µM

SMILES: O=C1Nc2cccnc2N(C(=O)CN2CCN(Cc3ccccc3)CC2)c2ccccc21 [Compound 23, 5,11-Dihydro-11-[(4-benzyl-1-piperazinyl)acetyl]-6H-pyrido[2,3-b] [1,4]benzodiazepine-6-one]
- affinity at m2 muscarinic receptors relative to 22 (m2 muscarinic receptors; [5]): greater affinity at m1 and m2 muscarinic receptors
- receptor subtype selectivity [1]: non-selective for m1 versus m2 receptors
- affinity at m1 muscarinic receptors relative to 22 (m1 muscarinic receptors [2]; [5]): greater affinity at m1 and m2 muscarinic receptors

SMILES: Cc1scc2c1N(C(=O)CN1CCN(CCCCCCCCCCN)CC1)c1ccccc1NC2=O [Compound 40, n=10, 4,9-Dihydro-3-methyl-4-[[4-(10-aminodecyl)-1-piperazinyl]-acetyl]-10H-thieno[3,4-b][1,5]benzodiazepin-10-one]
- Ki (m1 muscarinic receptors [2]; radioligand binding assays, read-out: affinity for m1 receptors (Ki)): 0.00239 µM

SMILES: Cc1scc2c1N(C(=O)CN1CCN(C)CC1)c1ccccc1NC2=O [telenzepine]
- muscarinic receptor selectivity (literature) (muscarinic receptors): preserve selectivity for m1 receptors
- potency as muscarinic antagonist relative to pirenzepine (literature) (muscarinic receptors): more potent antagonist
- selectivity ratio / factor for m1 receptors (m1 muscarinic receptors [2]; m1 versus m2 receptors): 25

SMILES: CSc1ccc2c(c1)C(=O)Nc1cccnc1N2C(=O)CN1CCN(C)CC1 [Compound 11a]
- displacement of [3H]NMS from the receptor [1]: detectable displacement of [^3 H]NMS

SMILES: NCCN1CCN(CC(=O)N2c3ccccc3C(=O)Nc3cccnc32)CC1 [Compound 27, 5,11-Dihydro-11-[(4-[2-aminoethyl]-1-piperazinyl)acetyl]-6H-pyrido[2,3-b][1,4]benzodiazepine-6-one]
- Ki [1]: ~1 µM

SMILES: COc1ccccc1CNCCCCCCNCCCCCCCCNCCCCCCNCc1ccccc1OC [methoctramine]
- muscarinic receptor selectivity (literature) (muscarinic receptors): m2-selective muscarinic antagonist

SMILES: C#CCN1CCN(CC(=O)N2c3ccccc3C(=O)Nc3cccnc32)CC1 [Compound 22, 5,11-Dihydro-11-[(4-propargyl-1-piperazinyl)acetyl]-6H-pyrido[2,3-b][1,4]benzodiazepine-6-one]
- Ki [1]: ~1 µM
- receptor subtype selectivity [1]: non-selective

SMILES: Cl.Cl.O=C1Nc2cccnc2N(C(=O)CN2CCN(CCCl)CC2)c2ccccc21 [Compound 26, 5,11-Dihydro-11-[(4-[2-chloroethyl]-1-piperazinyl)acetyl]-6H-pyrido[2,3-b][1,4]benzodiazepine-6-one dihydrochloride]
- affinity / potency at muscarinic receptors [1]: high binding affinity
- receptor subtype selectivity [1]: retained selectivity for m1 receptors
- change in Kd and Bmax of [3H]NMS after preincubation (m1 muscarinic receptors [3]): no change in the Kd and Bmax values
- irreversible inhibition of m1 receptors (m1 muscarinic receptors [3]; dihydrochloride): not an irreversible inhibitor of m1 receptors; also recorded: lack of irreversible inhibition
- stability of the salt upon storage [4]: at least 6 months
- selectivity ratio m1 versus m2 receptors (m1 muscarinic receptors [2]): 4.4 fold

SMILES: CCN(CC)CCCCC1CCN(CC(=O)N2c3ccccc3C(=O)Nc3cccnc32)CC1 [AQ-RA 741]
- muscarinic receptor selectivity (literature) (muscarinic receptors): selective for M2 receptors

Further lines, with some results ahead:

- Kd (m2 muscarinic receptors; m2): < 0.02 µM
- receptor subtype selectivity [1]: non-selective
- Kd (m1 muscarinic receptors [2]; m1): < 0.02 µM
SMILES: NCCCCCCCCCCN1CCN(CC(=O)N2c3ccccc3C(=O)Nc3cccnc32)CC1 [Compound 34h, 5,11-Dihydro-11-[(4-[10-aminodecyl]-1-piperazinyl)acetyl]-6H-pyrido[2,3-b][1,4]-benzodiazepine-6-one]
- affinity / potency at muscarinic receptors [1]: higher affinities than the corresponding derivatives with the small neutral acetylamino terminal group (35g and 35h); also recorded: most potent in the series of primary amines

- affinity / potency at muscarinic receptors [1]: low affinity
SMILES: CN1CCN(CC(=O)N2c3ccccc3C(=O)N(CCCCCCC#N)c3cccnc32)CC1 [Compound 17b]

- factor by which 29a and 32d differ in affinity at m2 receptors (m2 muscarinic receptors; m2): 280
- affinity / potency at muscarinic receptors [1]: inactivity
- factor by which 29a and 32d differ in affinity at m1 receptors (m1 muscarinic receptors [2]; m1): 360
SMILES: CC(C)(C)OC(=O)NCCC(=O)NCCN1CCN(CC(=O)N2c3ccccc3C(=O)Nc3cccnc32)CC1 [Compound 29a]

- factor by which 29a and 32d differ in affinity at m2 receptors (m2 muscarinic receptors; m2): 280
- factor by which 29a and 32d differ in affinity at m1 receptors (m1 muscarinic receptors [2]; m1): 360
SMILES: CC(C)(C)OC(=O)NCCCCCCN1CCN(CC(=O)N2c3ccccc3C(=O)Nc3cccnc32)CC1 [Compound 32d]
- affinity / potency at muscarinic receptors [1]: more potent than the corresponding free amines (34)

- affinity / potency at muscarinic receptors [1]: low affinity
SMILES: CCN1C(=O)c2ccccc2N(C(=O)CN2CCN(C)CC2)c2ncccc21 [Compound 17a, 5-Ethyl-11-hydro-[(4-methyl-1-piperazinyl)acetyl]-6H-pyrido[2,3-b][1,4]-benzodiazepine-6-one]

- selectivity ratio m1 versus m2 receptors (m1 muscarinic receptors [2]): 5 fold
SMILES: NCCCCCN1CCN(CC(=O)N2c3ccccc3C(=O)Nc3cccnc32)CC1 [Compound 34c]
